Measured values published in patent US6455559B1, “Phenylacetamido-pyrazole derivatives, process for their preparation and their use as antitumor agents” (Pharmacia Italia S.p.A., priority 2001, dated 2002).

Target: cdk2/Cyclin A (Homo sapiens, UniProt P24941)
Test: inhibition assay of cdk2/Cyclin A activity (MultiScreen-PH phosphocellulose filter plate, histone H1, P33γ-ATP)
Assay type: biochemical
Details: tested against cdk2/A; read-out: inhibitory activity, expressed as IC50
Description: The inhibiting activity of putative cdk/cyclin inhibitors and the potency of selected compounds was determined through a method of assay based on the use of the MultiScreen-PH 96 well plate (Millipore), in which phosphocellulose filter paper was placed at each well bottom allowing binding of positive charged substrate after a washing/filtration step.
When a radioactivity labelled phosphate moiety was transferred by the ser/threo kinase to the filter-bound histone, light emitted was measured in a scintillation counter.
The inhibition assay of cdk2/Cyclin A activity was performed according to the following protocol.
Kinase reaction: 1.5 μM histone H1 substrate, 25 μM ATP (0.5 uCi P33γ-ATP), 100 ng Cyclin A/cdk2 complex, 10 μM inhibitor in a final volume of 100 μl buffer (TRIS HCl 10 mM pH 7.5, MgCl2 10 mM, 7.5 mM DTT) were added to each well of a 96 U bottom well plate. After 10 minutes at 37° C. incubation, reaction was stopped by 20 μl EDTA 120 mM.
Capture: 100 μl were transferred from each well MultiScreen plate, to allow substrate binding phosphocellulose filter. […]
Detection: filters were allowed to dry at 37° C., then 100 μl/well scintillant were added and 33P labelled histone H1 was detected by radioactivity counting in the Top-Count instrument.
Results: data were analysed and expressed as % inhibition referred to total activity of enzyme (=100%).

C[C@H](C(=O)Nc1cc(C2CC2)[nH]n1)c1ccc(N2CCOC2=O)cc1 [(2S)-N-(5-cyclopropyl-1H-pyrazol-3-yl)-2-[4-(2-oxo-1,3-oxazolidin-3-yl)phenyl]propanamide]
IC50: 8 nM
